Values quoted from earlier work as cited in PubChem BioAssay AID1259409 (Chemical Carcinogenesis Research Information System (CCRIS), 2018).

Tested on: rodent chemically induced tumor inhibition, incidence and multiplicity
Assay: CCRIS tumor inhibitor studies
Settings: Dose [Inhibitor]: 0, Promoter: NONE USED

Structure (SMILES): Cn1c(=O)c2c(ncn2C)n(C)c1=O
- tumour outcome (control, treated, inhibition, significance) (Carcinogen: 7,12-DIMETHYLBENZ[A]ANTHRACENE, 57-97-6, 500 MG/L IN DRINKING WATER OF 58 DAY OLD VIRGIN RATS (STUDY DURATION: 56 WK), Route [Inhibitor]: ORAL, Species: RAT, Strain/Sex: SPRAGUE-DAWLEY/FEMALE, Target Tissue: Type of Lesion: MAMMARY GLAND: FIBROADENOMA, Dose [Carcinogen]: 2 MG/100 G BW ONCE AT 55 D OF AGE): 86%, 68%, 21%, not significant
- tumour outcome (control, treated, inhibition, significance) (Carcinogen: 7,12-DIMETHYLBENZ[A]ANTHRACENE, 57-97-6, 500 MG/L IN DRINKING WATER OF 150 DAY OLD PAROUS RATS (STUDY DURATION: 165 D), Route [Inhibitor]: ORAL, Species: RAT, Strain/Sex: SPRAGUE-DAWLEY/FEMALE, Target Tissue: Type of Lesion: MAMMARY GLAND: CARCINOMA, Dose [Carcinogen]: 20 MG/ML IN CORN OIL ONCE AT 135 D OF AGE): 21%, 3%, 86%, not calculated
- tumour outcome (control, treated, inhibition, significance) (Carcinogen: 7,12-DIMETHYLBENZ[A]ANTHRACENE, 57-97-6, 500 MG/L IN DRINKING WATER OF 150 DAY OLD PAROUS RATS (STUDY DURATION: 165 D), Route [Inhibitor]: ORAL, Species: RAT, Strain/Sex: SPRAGUE-DAWLEY/FEMALE, Target Tissue: Type of Lesion: MAMMARY GLAND: FIBROADENOMA, Dose [Carcinogen]: 20 MG/ML IN CORN OIL ONCE AT 135 D OF AGE): 62%, 40%, 35%, not significant
- tumour outcome (control, treated, inhibition, significance) (Carcinogen: 7,12-DIMETHYLBENZ[A]ANTHRACENE, 57-97-6, 500 MG/L IN DRINKING WATER OF 150 DAY OLD VIRGIN RATS (STUDY DURATION: 165 D), Route [Inhibitor]: ORAL, Species: RAT, Strain/Sex: SPRAGUE-DAWLEY/FEMALE, Target Tissue: Type of Lesion: MAMMARY GLAND: CARCINOMA, Dose [Carcinogen]: 20 MG/ML IN CORN OIL ONCE AT 135 D OF AGE): 45%, 20%, 56%, p<0.05
- tumour outcome (control, treated, inhibition, significance) (Carcinogen: 7,12-DIMETHYLBENZ[A]ANTHRACENE, 57-97-6, 500 MG/L IN DRINKING WATER OF 150 DAY OLD VIRGIN RATS (STUDY DURATION: 165 D), Route [Inhibitor]: ORAL, Species: RAT, Strain/Sex: SPRAGUE-DAWLEY/FEMALE, Target Tissue: Type of Lesion: MAMMARY GLAND: FIBROADENOMA, Dose [Carcinogen]: 20 MG/ML IN CORN OIL ONCE AT 135 D OF AGE): 72%, 43%, 40%, p<0.05
- tumour outcome (control, treated, inhibition, significance) (Carcinogen: 17BETA-ESTRADIOL, 50-28-2, PROGESTERONE, 57-83-0, Carcinogen: 17BETA-ESTRADIOL, 50-28-2, PROGESTERONE, 57-83-0, 500 MG/L IN DISTILLED DRINKING WATER FOR 23 WK BEGINNING 1 WK POST FIRST CARCINOGEN DOSE (STUDY DURATION: 24 WK), Route [Inhibitor]: ORAL, Species: MOUSE, Strain/Sex: GR/A/FEMALE, Target Tissue: Type of Lesion: MAMMARY GLAND: TUMOR, Dose [Carcinogen]: 0.5 MG/L 17BETA-ESTRADIOL IN DRINKING WATER FOR 24 WK AND 30 MG PROGESTERONE IN PELLETS RENEWED EVERY 30 D FOR 24 WK): 55/55 (100%), 52/55 (95%), 5%, not significant
- tumour outcome (control, treated, inhibition, significance) (Carcinogen: 17BETA-ESTRADIOL, 50-28-2, PROGESTERONE, 57-83-0, Carcinogen: 17BETA-ESTRADIOL, 50-28-2, PROGESTERONE, 57-83-0, 500 MG/L IN DISTILLED DRINKING WATER FOR 23 WK BEGINNING 1 WK POST FIRST CARCINOGEN DOSE (STUDY DURATION: 24 WK), Route [Inhibitor]: ORAL, Species: MOUSE, Strain/Sex: GRS/SN/FEMALE, Target Tissue: Type of Lesion: MAMMARY GLAND: TUMOR, Dose [Carcinogen]: 0.5 MG/L 17BETA-ESTRADIOL IN DRINKING WATER FOR 24 WK AND 30 MG PROGESTERONE IN PELLETS RENEWED EVERY 30 D FOR 24 WK): 46/47 (98%), 44/45 (98%), 0%, not significant
- tumour outcome (control, treated, inhibition, significance) (Carcinogen: BENZO[A]PYRENE, 50-32-8, 1 MG/D FOR 6 WK (STUDY DURATION: 9 WK), Route [Inhibitor]: GAVAGE, Species: MOUSE, Strain/Sex: NIGP(S)/FEMALE, Target Tissue: Type of Lesion: LUNG: ADENOMA, Dose [Carcinogen]: 0.5 MG INJECTED IN THE SCAPULAR REGION OF NEWBORN MICE ONCE): 35%, 21%, 40%, not calculated
- tumour outcome (control, treated, inhibition, significance) (Carcinogen: BENZO[A]PYRENE, 50-32-8, 1 MG/D FOR 6 WK (STUDY DURATION: 9 WK), Route [Inhibitor]: GAVAGE, Species: MOUSE, Strain/Sex: NIGP(S)/MALE, Target Tissue: Type of Lesion: LUNG: ADENOMA, Dose [Carcinogen]: 0.5 MG INJECTED IN THE SCAPULAR REGION OF NEWBORN MICE ONCE): 48%, 18%, 63%, not calculated
- tumour outcome (control, treated, inhibition, significance) (Carcinogen: BENZO[A]PYRENE, 50-32-8, 2 MG/D FOR 6 WK (STUDY DURATION: 9 WK), Route [Inhibitor]: GAVAGE, Species: MOUSE, Strain/Sex: NIGP(S)/FEMALE, Target Tissue: Type of Lesion: LUNG: ADENOMA, Dose [Carcinogen]: 0.5 MG INJECTED IN THE SCAPULAR REGION OF NEWBORN MICE ONCE): 35%, 5%, 86%, not calculated
- tumour outcome (control, treated, inhibition, significance) (Carcinogen: BENZO[A]PYRENE, 50-32-8, 2 MG/D FOR 6 WK (STUDY DURATION: 9 WK), Route [Inhibitor]: GAVAGE, Species: MOUSE, Strain/Sex: NIGP(S)/MALE, Target Tissue: Type of Lesion: LUNG: ADENOMA, Dose [Carcinogen]: 0.5 MG INJECTED IN THE SCAPULAR REGION OF NEWBORN MICE ONCE): 48%, 5%, 90%, not calculated
- tumour outcome (control, treated, inhibition, significance) (Carcinogen: DIETHYLNITROSAMINE, 55-18-5, 300 MG/L IN DRINKING WATER BEGINNING 3 D PRIOR TO FIRST CARCINOGEN DOSE AND CONTINUING TO 14 D POST LAST CARCINOGEN D, Route [Inhibitor]: ORAL, Species: RAT, Strain/Sex: BD6/FEMALE, Target Tissue: Type of Lesion: ESOPHAGUS: TUMOR, Dose [Carcinogen]: 80 MG/KG BW 1/WK FOR 9 WK): 50%, 54%, -8%, not significant
- tumour outcome (control, treated, inhibition, significance) (Carcinogen: DIETHYLNITROSAMINE, 55-18-5, 300 MG/L IN DRINKING WATER BEGINNING 3 D PRIOR TO FIRST CARCINOGEN DOSE AND CONTINUING TO 14 D POST LAST CARCINOGEN D, Route [Inhibitor]: ORAL, Species: RAT, Strain/Sex: BD6/FEMALE, Target Tissue: Type of Lesion: LIVER: TUMOR, Dose [Carcinogen]: 80 MG/KG BW 1/WK FOR 9 WK): 100%, 95%, 5%, not significant
